Measured values published in US4864038A, “Antihypercholesterolemic compounds” (Merck & Co., Inc., priority 1988, dated 1989).

System: HMG-CoA reductase
Assay: HMG-CoA Reductase Inhibition Assay (in vitro, intrinsic inhibitory activity)
Type: biochemical
Details: IC50 of test compound compared with compactin determined simultaneously, compactin assigned a value of 100; tested as sodium salt of dihydroxy acid form; rat liver microsomal enzyme
Protocol: The intrinsic HMG-CoA reductase inhibition activity of the claimed compounds is measured in the in vitro protocol published in J. Med. Chem., 28, p. 347-358 (1985) and described below:
Male Holtzman Sprague-Dawley rats (225-250 g) were kept on reversed lighting and fed Purina rat chow containing 3% cholestryamine for 7 days preceding their sacrifice by CO2 asphyxiation. Livers were removed 6 hours into the dark cycle and used immediately to prepare microsomes. […]
Test compounds or compactin (after first being converted to the sodium salt of their dihydroxy acid form in situ by addition of 1N NaOH (1 equivalent) were added to the assay system in 10-μL volumes at multiconcentration levels. After a 40-minute incubation at 37° C. with shaking and exposure to air, the reaction was stopped by the addition of 0.4 mL of 8N HCl. After an additional 30-minute incubation period at 37° C. to ensure the complete lactonization of mevalonic acid to mevalonolactone, 0.2 ml of the mixture was added to an 0.5×5.0 cm column containing 100-200 mesh Bio-Rex 5, chloride form (Bio-Rad), wetted with distilled water, as described by Alberts et al [J. Proc. Natl. Acad. Sci. U.S.A., 1980, 77, 3957]. […] Five milliliters of Aquasol-2 (New England Nuclear) was added to each vial, and radioactivity was measured in a Packard Tri Carb Prias scintillation counter. […]

Structure (SMILES) | Relative Potency
C[C@H]1C=C2C=C[C@H](C)[C@H](CC[C@@H]3C[C@@H](O)CC(=O)O3)[C@H]2[C@@H](OC(=O)C(C)(C)Sc2ccccc2)C1 [Example 1, 6(R)-[2-[8(S)-[2-Methyl-2-(phenylthio)propionyloxy]-2(S),6(R)-dimethyl-1,2,6,7,8,8a(R)-hexahydronaphthyl-1(S)]ethyl]-4(R)-hydroxy-3,4,5,6-tetrahydro-2H-pyran-2-one] | 156
C[C@H]1C=C2C=C[C@H](C)[C@H](CC[C@@H]3C[C@@H](O)CC(=O)O3)[C@H]2[C@@H](OC(=O)C(C)(C)[S+]([O-])c2ccccc2)C1 (stereo partly drawn) [Example 2, 6(R)-[2-[8(S)-[2-Methyl-2-(phenylsulfinyl)propionyloxy]-2(S),6(R)-dimethyl-1,2,6,7,8,8a(R)-hexahydronaphthyl-1(S)]ethyl]-4(R)-hydroxy-3,4,5,,6-tetrahydro-2H-pyran-2-one] | 38
